Assay [1] concerns the target T1, Protein cereblon/Tyrosine-protein kinase ABL1/Breakpoint cluster region protein (Homo sapiens, UniProt P00519+P11274+Q96SW2). Put plainly: Protac binding affinity at CRBN/BCR-ABL (unknown origin) assessed as binding to non phosphorylated c-ABL kinase domain by Kinomescan assay. Format: protein assay.
Target sequence in this assay (P00519 whole entry, the tested form may be a part): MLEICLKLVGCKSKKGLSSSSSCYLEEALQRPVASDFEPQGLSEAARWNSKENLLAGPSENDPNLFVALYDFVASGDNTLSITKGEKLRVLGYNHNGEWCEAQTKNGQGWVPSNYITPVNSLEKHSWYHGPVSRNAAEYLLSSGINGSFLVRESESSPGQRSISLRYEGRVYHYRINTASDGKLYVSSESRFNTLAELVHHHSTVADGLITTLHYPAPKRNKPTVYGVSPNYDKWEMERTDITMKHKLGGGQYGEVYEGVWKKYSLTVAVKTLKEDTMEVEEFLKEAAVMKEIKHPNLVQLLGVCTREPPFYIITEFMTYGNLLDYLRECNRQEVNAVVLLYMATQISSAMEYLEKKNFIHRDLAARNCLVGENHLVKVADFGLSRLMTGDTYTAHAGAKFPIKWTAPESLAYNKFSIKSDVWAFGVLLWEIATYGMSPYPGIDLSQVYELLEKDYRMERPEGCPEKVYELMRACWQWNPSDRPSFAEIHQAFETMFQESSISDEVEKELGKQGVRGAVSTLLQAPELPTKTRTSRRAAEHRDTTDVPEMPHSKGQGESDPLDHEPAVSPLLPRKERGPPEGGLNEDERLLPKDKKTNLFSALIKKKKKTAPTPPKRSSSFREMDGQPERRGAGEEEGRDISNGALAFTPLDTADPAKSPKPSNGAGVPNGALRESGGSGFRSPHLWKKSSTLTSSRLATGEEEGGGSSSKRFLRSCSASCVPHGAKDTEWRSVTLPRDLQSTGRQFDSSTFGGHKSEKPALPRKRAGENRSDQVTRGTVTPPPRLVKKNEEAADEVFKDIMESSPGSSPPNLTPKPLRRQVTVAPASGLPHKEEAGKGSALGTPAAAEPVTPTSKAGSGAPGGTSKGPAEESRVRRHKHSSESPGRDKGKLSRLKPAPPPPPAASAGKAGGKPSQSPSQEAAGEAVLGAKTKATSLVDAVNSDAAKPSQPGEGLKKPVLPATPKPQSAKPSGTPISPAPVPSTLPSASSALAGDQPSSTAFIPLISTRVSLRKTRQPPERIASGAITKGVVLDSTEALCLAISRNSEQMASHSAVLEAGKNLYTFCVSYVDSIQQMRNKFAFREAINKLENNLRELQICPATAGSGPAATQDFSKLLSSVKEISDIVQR
Target sequence in this assay (P11274 whole entry, the tested form may be a part): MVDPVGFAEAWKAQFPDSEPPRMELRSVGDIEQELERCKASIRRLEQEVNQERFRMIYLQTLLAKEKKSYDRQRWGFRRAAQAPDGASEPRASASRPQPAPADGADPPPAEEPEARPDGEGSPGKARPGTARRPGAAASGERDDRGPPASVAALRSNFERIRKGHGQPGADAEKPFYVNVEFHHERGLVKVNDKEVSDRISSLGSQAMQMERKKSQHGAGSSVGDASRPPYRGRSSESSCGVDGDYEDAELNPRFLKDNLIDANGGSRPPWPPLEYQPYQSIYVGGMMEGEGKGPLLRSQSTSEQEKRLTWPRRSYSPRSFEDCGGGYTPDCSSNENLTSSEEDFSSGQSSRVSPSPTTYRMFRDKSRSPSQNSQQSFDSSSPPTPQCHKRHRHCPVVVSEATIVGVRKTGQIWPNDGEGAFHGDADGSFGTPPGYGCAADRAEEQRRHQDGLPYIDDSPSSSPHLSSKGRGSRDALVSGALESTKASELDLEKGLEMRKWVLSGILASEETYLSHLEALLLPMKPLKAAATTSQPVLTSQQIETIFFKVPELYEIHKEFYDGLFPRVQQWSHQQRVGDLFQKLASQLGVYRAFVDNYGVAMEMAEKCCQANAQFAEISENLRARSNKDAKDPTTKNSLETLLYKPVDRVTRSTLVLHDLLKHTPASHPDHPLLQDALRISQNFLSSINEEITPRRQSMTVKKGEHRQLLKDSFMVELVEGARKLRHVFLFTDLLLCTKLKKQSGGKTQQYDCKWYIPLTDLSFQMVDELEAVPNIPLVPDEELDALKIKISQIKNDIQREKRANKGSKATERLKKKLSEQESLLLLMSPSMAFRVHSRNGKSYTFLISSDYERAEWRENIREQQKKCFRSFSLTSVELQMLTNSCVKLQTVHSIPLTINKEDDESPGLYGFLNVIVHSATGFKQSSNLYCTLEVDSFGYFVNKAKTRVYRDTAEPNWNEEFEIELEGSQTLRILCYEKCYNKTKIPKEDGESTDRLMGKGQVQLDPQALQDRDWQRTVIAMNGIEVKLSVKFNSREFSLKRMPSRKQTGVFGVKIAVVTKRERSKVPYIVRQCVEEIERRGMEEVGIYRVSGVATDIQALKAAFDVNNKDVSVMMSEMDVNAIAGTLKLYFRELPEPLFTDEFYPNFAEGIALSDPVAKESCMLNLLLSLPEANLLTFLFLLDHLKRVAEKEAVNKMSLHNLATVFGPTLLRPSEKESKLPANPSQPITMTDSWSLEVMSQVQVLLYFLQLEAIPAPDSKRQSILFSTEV
Target sequence in this assay (Q96SW2 whole entry, the tested form may be a part): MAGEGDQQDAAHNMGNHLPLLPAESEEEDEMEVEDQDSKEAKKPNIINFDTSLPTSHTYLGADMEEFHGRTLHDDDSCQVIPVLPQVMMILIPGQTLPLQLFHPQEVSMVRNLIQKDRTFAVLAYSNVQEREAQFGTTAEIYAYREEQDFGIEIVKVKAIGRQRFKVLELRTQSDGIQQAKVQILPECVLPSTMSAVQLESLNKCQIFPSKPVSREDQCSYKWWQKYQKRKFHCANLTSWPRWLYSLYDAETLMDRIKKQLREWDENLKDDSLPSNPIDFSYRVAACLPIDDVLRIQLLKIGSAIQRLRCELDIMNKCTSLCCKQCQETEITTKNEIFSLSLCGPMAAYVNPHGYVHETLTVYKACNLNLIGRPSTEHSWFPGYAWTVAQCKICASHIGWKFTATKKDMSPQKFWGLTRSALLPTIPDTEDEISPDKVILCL
Assay [2] addresses T1, Protein cereblon/Tyrosine-protein kinase ABL1/Breakpoint cluster region protein. Put plainly: Protac activity at CRBN/BCR-ABL in human K562 cells assessed as induction of BCR-ABL degradation at 2.5 uM incubated for 24 hrs by western blot analysis relative to control. Format: cell-based. Background: Immunoblotting shows a protein as a band on a membrane.
Target sequence in this assay (P00519 whole entry, looked up, the tested form may be a part): as the sequence (P00519 whole entry, the tested form may be a part) above
Target sequence in this assay (P11274 whole entry, looked up, the tested form may be a part): as the sequence (P11274 whole entry, the tested form may be a part) above
Target sequence in this assay (Q96SW2 whole entry, looked up, the tested form may be a part): as the sequence (Q96SW2 whole entry, the tested form may be a part) above
Assay [3] has the same target. Put plainly: Protac activity at CRBN/BCR-ABL in human K562 cells assessed as induction of BCR-ABL degradation at 1 uM incubated for 24 hrs by western blot analysis relative to control. Format: cell-based.
Target sequence in this assay (P00519 whole entry, looked up, the tested form may be a part): as the sequence (P00519 whole entry, the tested form may be a part) above
Target sequence in this assay (P11274 whole entry, looked up, the tested form may be a part): as the sequence (P11274 whole entry, the tested form may be a part) above
Target sequence in this assay (Q96SW2 whole entry, looked up, the tested form may be a part): as the sequence (Q96SW2 whole entry, the tested form may be a part) above
Assay [4] shares this target. Put plainly: Protac binding affinity at CRBN/BCR-ABL (unknown origin) assessed as binding to phosphorylated c-ABL kinase domain by Kinomescan assay. In kind it is protein assay.
Target sequence in this assay (P00519 whole entry, the tested form may be a part): as the sequence (P00519 whole entry, the tested form may be a part) above
Target sequence in this assay (P11274 whole entry, the tested form may be a part): as the sequence (P11274 whole entry, the tested form may be a part) above
Target sequence in this assay (Q96SW2 whole entry, the tested form may be a part): as the sequence (Q96SW2 whole entry, the tested form may be a part) above
In assay [5] the target is T2, von Hippel-Lindau disease tumor suppressor/Tyrosine-protein kinase ABL1/Breakpoint cluster region protein (Homo sapiens, UniProt P00519+P11274+P40337). Description: Protac binding affinity at VHL/BCR-ABL (unknown origin) assessed as binding to phosphorylated c-ABL kinase domain by Kinomescan assay. Format: protein assay.
For assay [6], the target named is T2, von Hippel-Lindau disease tumor suppressor/Tyrosine-protein kinase ABL1/Breakpoint cluster region protein. Description: Protac binding affinity at VHL/BCR-ABL (unknown origin) assessed as binding to non phosphorylated c-ABL kinase domain by Kinomescan assay. Format: protein assay.

Molecules are shown by their SMILES.

T2 sequence (P00519 whole entry, the tested form may be a part): as the sequence (P00519 whole entry, the tested form may be a part) above
T2 sequence (P11274 whole entry, the tested form may be a part): as the sequence (P11274 whole entry, the tested form may be a part) above
T2 sequence (P40337 whole entry, the tested form may be a part): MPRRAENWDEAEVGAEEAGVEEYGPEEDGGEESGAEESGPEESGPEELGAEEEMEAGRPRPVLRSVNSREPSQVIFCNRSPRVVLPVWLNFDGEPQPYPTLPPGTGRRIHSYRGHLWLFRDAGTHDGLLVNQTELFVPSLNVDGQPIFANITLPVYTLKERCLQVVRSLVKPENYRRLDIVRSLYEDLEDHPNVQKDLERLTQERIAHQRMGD

In general, Kd refers to a measure of binding affinity in units of concentration. Regarding `COc1cc(Nc2c(C#N)cnc3cc(OCCCN4CCN(CCCCCCOCCOCCOCCOCCOCCOCC(=O)Nc5cccc6c5C(=O)N(C5CCC(=O)NC5=O)C6=O)CC4)c(OC)cc23)c(Cl)cc1Cl` (stereo not drawn), the Kd in assay [1] came to 0.38 nM; in assay [4] it was 0.13 nM. The results for the Activity in assay [2] and in assay [3] were above 80% and above 60%, respectively.

Regarding `COc1cc(Nc2c(C#N)cnc3cc(OCCCN4CCN(CCCCCCOCCOCC(=O)N[C@H](C(=O)N5C[C@H](O)C[C@H]5C(=O)NCc5ccc(-c6scnc6C)cc5)C(C)(C)C)CC4)c(OC)cc23)c(Cl)cc1Cl`, the Kd in assay [5] turned out to be 0.67 nM; in assay [6], 1.3 nM.

For `Cc1nc(Nc2ncc(C(=O)Nc3c(C)cccc3Cl)s2)cc(N2CCN(CCCCCCOCCOCCOCCOCCOCCOCC(=O)N[C@H](C(=O)N3C[C@H](O)C[C@H]3C(=O)NCc3ccc(-c4scnc4C)cc3)C(C)(C)C)CC2)n1`, the Kd in assay [5] was 0.088 nM; in assay [6], 0.28 nM.

With `Cc1nc(Nc2ncc(C(=O)Nc3c(C)cccc3Cl)s2)cc(N2CCN(CCCCCCOCCOCC(=O)N[C@H](C(=O)N3C[C@H](O)C[C@H]3C(=O)NCc3ccc(-c4scnc4C)cc3)C(C)(C)C)CC2)n1`, the Kd in assay [5] came out at 0.21 nM; in assay [6], 0.36 nM.

`Cc1nc(Nc2ncc(C(=O)Nc3c(C)cccc3Cl)s2)cc(N2CCN(CCCCCCOCCOCCOCCCCCC(=O)N[C@H](C(=O)N3C[C@H](O)C[C@H]3C(=O)NCc3ccc(-c4scnc4C)cc3)C(C)(C)C)CC2)n1`: the Kd in assay [5] was 0.47 nM; in assay [6], 0.92 nM.

As to `Cc1nc(Nc2ncc(C(=O)Nc3c(C)cccc3Cl)s2)cc(N2CCN(CCCCCCOCCOCCOCCOCCOCCOCC(=O)Nc3cccc4c3C(=O)N(C3CCC(=O)NC3=O)C4=O)CC2)n1` (stereo not drawn), the values for the Kd in assay [1] and in assay [4] were 0.26 nM and 0.23 nM, respectively. The Activity was above 80% in assay [2] and above 60% in assay [3].

As to `COc1cc(Nc2c(C#N)cnc3cc(OCCCN4CCN(CCCCCCOCCOCC(=O)Nc5cccc6c5C(=O)N(C5CCC(=O)NC5=O)C6=O)CC4)c(OC)cc23)c(Cl)cc1Cl` (stereo not drawn), the Kd in assay [1] amounted to 0.28 nM; in assay [4] it was 0.11 nM. The results for the Activity in assay [2] and in assay [3] were above 80% and above 60%, respectively.

As to `COc1cc(Nc2c(C#N)cnc3cc(OCCCN4CCN(CCCCCCOCCOCCOCCOCCOCCOCC(=O)N[C@H](C(=O)N5C[C@H](O)C[C@H]5C(=O)NCc5ccc(-c6scnc6C)cc5)C(C)(C)C)CC4)c(OC)cc23)c(Cl)cc1Cl`, the Kd in assay [5] turned out to be 0.3 nM; in assay [6], 0.57 nM.

Take `COc1cc(Nc2c(C#N)cnc3cc(OCCCN4CCN(CCCCCCOCCOCCOCCCCCC(=O)Nc5cccc6c5C(=O)N(C5CCC(=O)NC5=O)C6=O)CC4)c(OC)cc23)c(Cl)cc1Cl` (stereo not drawn): the Kd in assay [1] was 0.91 nM; in assay [4], 0.55 nM. Also, the Activity in assay [2] was above 80%; in assay [3], above 60%.

Consider `Cc1nc(Nc2ncc(C(=O)Nc3c(C)cccc3Cl)s2)cc(N2CCN(CCCCCCOCCOCCOCCCCCC(=O)Nc3cccc4c3C(=O)N(C3CCC(=O)NC3=O)C4=O)CC2)n1` (stereo not drawn), for which the results for the Activity in assay [2] and in assay [3] were above 80% and above 60%, respectively.

The values above are taken from ChEMBL document CHEMBL4665907, “Breakthrough in Degradation of BCR-ABL Fusion Protein for the Treatment of Cancer” (ACS Med Chem Lett, 2020).
